Assay results taken from patent EP1326493B1, “AGROCHEMICAL COMPOSITION CONTAINING ACTIVITY-ENHANCING ADJUVANTS” (Syngenta Limited, priority 2000, dated 2002).
≈ marks a conversion by molar mass, not a printed value. Each block holds one compound with its values, some of them ahead of it.

How the values were obtained:
[1] = test system: Sorgham halepense (SORHA); assay: Glass-house comparative efficacy test of potassium glyphosate with adjuvants; type: in vivo; conditions: potassium glyphosate 240 g acid equivalent/ha, 21 days after treatment
Method: (§1) Potassium glyphosate was applied at 240 g glyphosate acid equivalent/ha to Chenopodium album (CHEAL), Echinochloa crus-galli (ECHCG) and Sorgham halepense (SORHA) plants grown in the glass-house. All treatments were made up in deionised water and applied using a tracksprayer with a 11002 nozzle at a spray application volume of […]. All treatments were replicated 4 times. After spraying the plants were laid out in a glass-house and maintained at a temperature of 24°C by day and 16°C by night. The Agrimul PG2067 and Synperonic PEL62 adjuvants were used in a proportion 0.2% w/v. The adjuvant 2-ethylhexyl amine 8EO was used at both 0.2%w/v and 0.3%w/v. The adjuvant Sodium dodecyl sulphate was used in a proportion of 0.3%w/v. When applied as binary blends all adjuvants were used in a proportion of 0.1%w/v except Sodium dodecyl sulphate which was applied at 0.2%w/v. A visual assessment of % control, where 0=unaffected and 100=complete kill, was carried out 21 days after treatment.

[2] = test system: Echinochloa crus-galli (ECHCG); assay: as above; type: in vivo; conditions: potassium glyphosate 240 g acid equivalent/ha, 21 days after treatment
Method: as §1

[3] = test system: Chenopodium album (CHEAL); assay: as above; type: in vivo; conditions: potassium glyphosate 240 g acid equivalent/ha, 21 days after treatment
Method: as §1

Daphnia magna = Daphnia magna immobilisation ecotoxicity test; type: in vivo
Method: The following ecotoxicity results were obtained for various alkyl amine alkoxylates using the following test method. First instar Daphnia magna (less than 24 hrs old), obtained from cultures were exposed to a range of concentrations of the test amine ethoxylates in hard blended water (160-180 mg CaCO3 /litre). 10 Daphnia magna were added to each vessel which were then placed at ∼20 degrees C on a 16/8 light/dark day. Organisms were assessed at 24 and 48 hours, the effect observed being immobilisation after gentle agitation. The EC50 values were calculated using a statistical package, the 95% confidence limits are quoted in brackets.
The amine ethoxylates were tested in the presence of potassium glyphosate in order to protonate the amine. […] The remaining adjuvants were tested in the absence of potassium glyphosate. It can be seen that the ecotoxicity of the alkyl amine alkoxylates 3 to 6 falling within the definition of the present invention was very much lower that that for the nearest previously known compounds 1 to 2. It will be appreciated that the higher the EC50 value, the lower the toxicity.

[4] = Dynamic surface tension, maximum bubble pressure method (Lauda MPT-2); type: physicochemical
Method: Dynamic surface tension can be measured using the maximum bubble pressure method. Various commercial instruments are available for measuring dynamic surface tension by the maximum bubble pressure method, for example the Lauda MPT-2 maximum bubble pressure instrument. The dynamic surface tension at 40msecs is determined from the maximum pressure in a bubble blown from a capillary inserted into a surfactant solution, for a bubble surface lifetime of 40msecs.
The dynamic surface tension measurements were carried out with a Lauda MPT-2 maximum bubble pressure tensiometer. The dynamic surface tension at 40 msecs was determined from the maximum pressure in a bubble blown from a capillary inserted into a surfactant solution, for a bubble surface lifetime of 40 msecs. The dynamic surface tensions were determined for solutions containing 0.1%, 0.2% or 0.5% by weight of the second adjuvant in deionised water at 20°C. For comparison, the dynamic surface tension of a 0.5% by weight solution of 2-ethylhexyl amine 8EO adjusted to pH4 with dilute hydrochloric acid (to protonate the amine) was also determined at 20°C.

Avena fatua (AVEFA) = assay: Field efficacy test of potassium glyphosate with adjuvants; type: in vivo; conditions: potassium glyphosate + 0.2% adjuvant, mean across 100, 200, 400 and 600 g glyphosate acid/ha, 33 days after application
Text: (§2) Potassium glyphosate, in combination with the adjuvants specified below in Table 3, was applied to Lolium perenne (LOLPE), Avena fatua (AVEFA) and Chenopodium album (CHEAL) drilled as rows in the field, at a spray application volume of […]. Application rates were 100, 200, 400 and 600 g glyphosate acid/ha and each treatment was replicated 3 times. Data (mean of the three replicates and across all rates) is presented for a visual assessment of % control carried out 33 days after application, where 0 = unaffected and 100% = complete kill Table 3.

Lolium perenne (LOLPE) = assay: as above; type: in vivo; conditions: potassium glyphosate + 0.2% adjuvant, mean across 100, 200, 400 and 600 g glyphosate acid/ha, 33 days after application
Text: as §2

[5] = test system: Chenopodium album (CHEAL); assay: as above; type: in vivo; conditions: potassium glyphosate + 0.2% adjuvant, mean across 100, 200, 400 and 600 g glyphosate acid/ha, 33 days after application
Text: as §2

Compound: O=C(O)CNCP(=O)([O-])O.[K+] [Potassium glyphosate, reference compound]
visual assessment of % control SORHA ([1]; no adjuvant): 21%
visual assessment of % control ECHCG ([2]; no adjuvant): 48%
visual assessment of % control CHEAL ([3]; no adjuvant): 3%
contribution to the daphnia toxicity (Daphnia magna; potassium glyphosate itself): does not make a significant contribution

Dynamic Surface Tension at 40 msecs ([4]; 0.2% by weight in deionised water at 20°C): 53 mNm^-1
Dynamic Surface Tension at 40 msecs ([4]; 0.5% by weight in deionised water at 20°C): 39 mNm^-1
Compound: CCCCCCCCCCCCOS(=O)(=O)[O-].[Na+] [Number 9, Sodium dodecyl sulphate, reference compound]
visual assessment of % control SORHA ([1]; single adjuvant 0.3%): 76%
visual assessment of % control ECHCG ([2]; single adjuvant 0.3%): 78%

Compound: CCCCCCCCCCCCOS(=O)(=O)O [Number 9]
EC50 (Daphnia magna; Daphnia magna, 48 hours, immobilisation, tested in the absence of potassium glyphosate, 95% confidence limits in brackets, read-out: Daphnia toxicity EC50): 16 µg/mL (≈ 60.1 µM)

Dynamic Surface Tension at 40 msecs ([4]; 0.5% by weight solution adjusted to pH4 with dilute hydrochloric acid, 20°C): 64 mNm^-1
Compound: 2-ethylhexyl amine 8EO [Number 3]
visual assessment of % control SORHA ([1]; single adjuvant 0.2%): 74%
visual assessment of % control SORHA ([1]; single adjuvant 0.3%): 75%
visual assessment of % control ECHCG ([2]; single adjuvant 0.2%): 63%
visual assessment of % control ECHCG ([2]; single adjuvant 0.3%): 64%
visual assessment of % control CHEAL ([3]; single adjuvant 0.2%): 59%
visual assessment of % control AVEFA (Avena fatua (AVEFA)): 68%
visual assessment of % control LOLPE (Lolium perenne (LOLPE)): 47%
visual assessment of % control CHEAL [5]: 74%
